# Like-named read-outs stand apart in the source and are kept apart here.
# Molecular target: T1, human full length Hsp90 (Homo sapiens, UniProt P07900)
# T1 construct: amino acid residues 1 to 732 of human Hsp90 (GenBank: BC121062.2); made in house; host or cells: E. coli BL21DE3 (pET15b)
# Assay: Fluorescence polarization Hsp90 competitive binding assay (GM-FITC displacement)
# Details: for inhibition at 10 µM: compound at 10 μM, read-out: Biochemical Potency % Inhibition at 10 μM; for inhibition at 1 µM: compound at 1 μM, read-out: Biochemical Potency % Inhibition at 1 μM
# Procedure: Hsp90 binding assays was performed generally according to the procedure described in J. Biomol. […] Hsp90 inhibitors were solubilized in DMSO at a stock concentration of 50 mM. […] Eighty five μl of binding assay buffer (20 mM HEPES, pH-7.5, 50 mM KCl, 5 mM MgCl2, 20 mM sodium molybdate, 0.01% NP-40, 2 mM DTT, and 0.1 mg/ml BSA) was added to the wells of a 96 well black plate placed on ice. […] Next, 10 μl either binding assay buffer alone (control) or human full length Hsp90 protein diluted in the binding assay buffer was added to achieve a final concentration of 50 nM. The plates were incubated at 4° C. on a plate shaker for 24 h. Two μl of 50× GM-FITC (9 nM final) in DMSO was added to all wells and the plate was incubated at ambient temperature for 1 h with shaking. Fluorescence polarization readings were taken in duplicate at excitation and emission wavelengths of 480 nm and 500 nm respectively. Specific binding was calculated by subtracting polarization values in the presence of Hsp90 from those in the absence of Hsp90. To calculate percent inhibition the specific binding values obtained for GA-FITC in the presence of compound were compared to values for GA-FITC in the absence of compound (DMSO only).
# [1] = Table 1, 50 nM Hsp90, 9 nM GM-FITC, read-out: Biochemical Potency IC50
# [2] = Table II, binding affinities ranked by potency
# [3] = Table II, binding affinities ranked by potency, read-out: IC50
IC50 [1] [nM],Ki [2] [nM],IC50 [3] [nM],inhibition at 10 µM [%],inhibition at 1 µM [%],Molecule
30000,7500,30000,–,–,"COc1c(C)cnc(CN(C(=O)CC(C)(C)C)c2cc(Cl)nc(N)n2)c1C [SBI-0639901, N-(2-amino-6-chloropyrimidin-4-yl)-N-((4-methoxy-3,5-dimethylpyridin-2-yl)methyl)-3,3-dimethylbutanamide]"
13900,3480,13900,–,–,COc1c(C)cnc(CN(C(=O)C(C)C)c2cc(Cl)nc(N)n2)c1C [SBI-0640644]
≥ 32000,> 8000,> 32000,–,–,"Cc1cnc(CN(C)c2cc(Cl)nc(N)n2)c(C)c1Br [SBI-0639900, N4-((4-Bromo-3,5-dimethylpyridin-2-yl)methyl)-6-chloro-N4-methylpyrimidine-2,4-diamine]"
–,> 2500,> 10000,10,–,COc1cc(CNc2nc(N)nc3[nH]ccc23)cc(OC)c1OC [SBI-0635446]
350,88,350,–,–,"6-Chloro-N4-((4-methoxy-3,5-dimethylpyridin-2-yl)methyl)-N4-(4-methoxyphenethyl)pyrimidine-2,4-diamine [SBI-0640605]"
1370,343,1370,–,–,"COc1c(C)cnc(CN(CCCO)c2cc(Cl)nc(N)n2)c1C [SBI-0639349, 3-((2-Amino-6-chloropyrimidin-4-yl)((4-methoxy-3,5-dimethylpyridin-2-yl)methyl)amino)propan-1-ol]"
≥ 32000,> 8000,> 32000,–,–,"COc1c(C)cnc(CN(C(=O)CCCCl)c2cc(Cl)nc(N)n2)c1C [SBI-0639902, N-(2-Amino-6-chloropyrimidin-4-yl)-4-chloro-N-((4-methoxy-3,5-dimethylpyridin-2-yl)methyl)butanamide]"
2150,538,2150,–,–,"Cc1cnc(CN(C)c2cc(Cl)nc(N)n2)c(C)c1Cl [SBI-0639899, 6-Chloro-N4-((4-chloro-3,5-dimethylpyridin-2-yl)methyl)-N4-methylpyrimidine-2,4-diamine]"
7500,1000,4000,61,7,COc1c(C)cnc(CNc2cc(Cl)nc(N)n2)c1C [SBI-0206665]
–,> 2500,> 10000,21,–,Nc1nc(Cl)cc(NCc2ccc(-c3ccccc3)cc2)n1 [SBI-0633826]
–,> 2500,> 10000,10,–,Nc1nc(Cl)cc(NCc2ccc(Oc3ccccc3)cc2)n1 [SBI-0638967]
–,> 2500,> 10000,19,4,COc1c(C)cnc(CNc2nc(N)nc3[nH]cnc23)c1C [SBI-0639182]
–,> 2500,> 10000,18,–,Nc1nc(Cl)cc(Nc2ccc3c(c2)OCO3)n1 [SBI-0636438]
> 250000,> 2500,> 10000,–,–,COc1cc(CNc2ccnc(N)n2)cc(OC)c1OC [SBI-0634911]
–,> 2500,> 10000,34,–,Nc1nc(Cl)cc(NCc2ccc(-c3ccc(Cl)cc3F)cc2)n1 [SBI-0638966]
–,> 2500,> 10000,25,–,COc1cc(CNc2cc(Cl)nc(N)n2)cc(OC)c1OC [SBI-0206664]
–,> 2500,> 10000,13,–,COc1cccc(CNc2cc(Cl)nc(N)n2)c1 [SBI-0630160]
391,98,391,–,–,"CCCCCCN(Cc1ncc(C)c(OC)c1C)c1cc(Cl)nc(N)n1 [SBI-0640609, 6-Chloro-N4-hexyl-N4-((4-methoxy-3,5-dimethylpyridin-2-yl)methyl)pyrimidine-2,4-diamine]"

# From US20160311795A1, “PYRIMIDINE DIAMINE DERIVATIVES AS INHIBITORS OF CYTOSOLIC HSP90” (CALASIA PHARMACEUTICALS, INC., priority 2012, published 2016)
